In patent US9415047B2, “Use of benzo five-membered nitrogen heterocyclic piperazine or piperidine derivatives” (Liaoning Emmy Biological Pharmaceutical Co., Ltd., priority 2012, dated 2016):

How the values were obtained:
[1] = test system: AD constricted rabbit aorta; assay: Relaxing effects on vascular smooth muscle constricted by adrenaline hydrochloride (AD) in vitro; settings: Oryctolagus cuniculus; relaxation of rabbit aorta constricted by adrenaline (10^−5 mol/L); mean±SEM, n=5
Protocol: Adrenaline hydrochloride (AD) (10^−5 mol/L) was added into a bath tube to induce constriction, when maximal constriction was achieved, the sample was completely flushed, K-H solution was changed for every 20 min. Contents in the tube was balanced for 60 min, when baseline recovered to be stable, the […] was added at the same concentration to induce constriction. When the later maximal constriction response was basically consistent with the former one, the prepared compound solutions were subsequently added, including compound II-1 to II-60 solutions (1×10^−8-1×10^−3 mol/L), compound II-84 to II-123 solutions (1×10^−10-1×10^−2 mol/L) and compound II-124 to II-157 solutions (1×10^−10˜1×10^−3 mol/L), to record the waveforms. Relaxing percentage of the compound was used as Y axis, maximal relaxation response was 100%, negative logarithm of different concentration was used as X axis, to draw dose effect curve (expressed in mean±SEM ( ? ), n=5). Compounds II-2 and II-3 had the most obvious relaxing effects (FIG. 1 and FIG. 8).

[2] = test system: high kalium concentration constricted rabbit aorta; assay: Relaxing effects on vascular smooth muscle constricted by high kalium concentration in vitro; settings: Oryctolagus cuniculus, relaxation of rabbit aorta constricted by high kalium solution (K+ 60 mmol/L); mean±SEM, n=5
Protocol: Adrenaline hydrochloride (AD) (10^−5 mol/L) was added into a bath tube to induce constriction, when maximal constriction was achieved, the sample was completely flushed, K-H solution was changed for every 20 min. Contents in the tube was balanced for 60 min, when baseline recovered to be stable, K-H solution in the bath tube was replaced with high kalium concentration solution to induce constriction. When the later maximal constriction response was basically consistent with the former one, the prepared compound solutions were subsequently added, including compound II-1 to II-60 solutions (1×10^−8-1×10^−3 mol/L), compound II-84 to II-123 solutions (1×10^−10-1×10^−2 mol/L) and compound II-124 to II-157 solutions (1×10^−10-1×10^−3 mol/L), to record the waveforms. Relaxing percentage of the compound was used as Y axis, maximal relaxation response was 100%, negative logarithm of different concentration was used as X axis, to draw dose effect curve (expressed in mean±SEM ( ? ), n=5). Compounds II-2 and II-3 had the most obvious relaxing effects (FIG. 2 and FIG. 9).

Row | Compound | EC50 [1] | EC50 [2]
1 | Fc1ccc2c(N3CCN(CCCCn4cnc5ccccc54)CC3)coc2c1 [II-21, 1-(4-(4-(3-(6-fluorobenzofuranyl))piperazine-1-yl)butyl)-1H-benzimidazole] | 89.1 µM | 178 µM
2 | Fc1ccc2c(N3CCN(CCCOn4cnc5ccccc54)CC3)noc2c1 [II-22, 1-(3-(4-(3-(6-fluorobenzisoxazolyl))piperazine-1-yl)propoxyl)-1H-benzimidazole] | 28.2 µM | 22.9 µM
3 | FC(F)(F)c1cccc(N2CCN(CCCOn3cnc4ccccc43)CC2)c1 [II-23, 1-(4-(4-(3-trifluoromethylphenyl)piperazine-1-yl)propoxyl)-1H-benzimidazole] | 19.1 µM | 38 µM
4 | Clc1cccc(N2CCN(CCCOn3cnc4ccccc43)CC2)c1 [II-24, 1-(4-(4-(3-chlorphenyl)piperazine-1-yl)propoxyl)-1H-benzimidazole] | 30.2 µM | 30.2 µM
5 | FC(F)(F)c1cccc(N2CCN(CCCCn3cnc4ccc(Cl)cc43)CC2)c1 [II-25, 6-chloro-1-(4-(4-(3-trifluoromethylphenyl)piperazine-1-yl)butyl)-1H-benzimidazole] | 16.2 µM | 29.5 µM
6 | N#Cc1ccc2ncn(CCCCN3CCN(c4cccc(C(F)(F)F)c4)CC3)c2c1 [II-26, 6-cyano-1-(4-(4-(3-trifluoromethylphenyl)piperazine-1-yl)butyl)-1H-benzimidazole] | 64.6 µM | 102 µM
7 | COC(=O)c1ccc2ncn(CCCCN3CCN(c4cccc(C(F)(F)F)c4)CC3)c2c1 [II-27, 6-methoxycarbonyl-1-(4-(4-(3-trifluoromethylphenyl)piperazine-1-yl)butyl)-1H-benzimidazole] | 49 µM | 87.1 µM
8 | FC(F)(F)c1cccc(N2CCN(CCCCCn3c(Cl)nc4ccccc43)CC2)c1 [II-28, 2-chloro-1-(5-(4-(3-trifluoromethylphenyl)piperazine-1-yl)pentyl)-1H-benzimidazole] | 102 µM | 141 µM
9 | Clc1cccc(N2CCN(CCCCn3nnc4ccccc43)CC2)c1 [II-29, 1-(4-(4-(3-chlorophenyl)piperazine-1-yl)butyl)-1H-benzotriazole] | 0.977 µM | 2.29 µM
10 | Fc1cccc(N2CCN(CCCCn3nnc4ccccc43)CC2)c1 [II-30, 1-(4-(4-(3-fluorophenyl)piperazine-1-yl)butyl)-1H-benzotriazole] | 3.02 µM | 7.41 µM
11 | Fc1ccc2nnn(CCCCN3CCN(c4cccc(C(F)(F)F)c4)CC3)c2c1 [II-32, 6-fluoro-1-(4-(4-(3-trifluoromethylphenyl)piperazine-1-yl)butyl)-1H-benzotriazole] | 3.89 µM | 24.5 µM
12 | Cc1cc2nnn(CCCCN3CCN(c4cccc(C(F)(F)F)c4)CC3)c2cc1C [II-33, 5,6-dimethyl-1-(4-(4-(3-trifluoromethylphenyl)piperazine-1-yl)butyl)-1H-benzotriazole] | 40.7 µM | 115 µM
13 | c1ccc2c(c1)nnn2CCCCN1CCN(c2nsc3ccccc23)CC1 [II-34, 3-(4-(4-(1H-benzotriazole-1-yl)butyl)piperazine-1-yl)benzisothiazole] | 0.00851 µM | 17 µM
14 | c1ccc2c(c1)nnn2CCCCN1CCN(c2noc3ccccc23)CC1 [II-35, 3-(4-(4-(1H-benzotriazole-1-yl)butyl)piperazine-1-yl)benzisoxazole] | 12.9 µM | 32.4 µM
15 | Fc1ccc2c(N3CCN(CCCCn4nnc5ccccc54)CC3)noc2c1 [II-36, 6-fluoro-3-(4-(4-(1H-benzotriazole-1-yl)butyl)piperazine-1-yl)benzisoxazole] | 4.9 µM | 4.9 µM
16 | Fc1ccc2c(N3CCN(CCCn4nnc5ccccc54)CC3)noc2c1 [II-37, 6-fluoro-3-(4-(3-(1H-benzotriazole-1-yl)propyl)piperazine-1-yl)benzisoxazole] | 2.75 µM | 3.72 µM
17 | COc1cccc(N2CCN(CCCCn3nnc4ccccc43)CC2)c1 [II-40, 1-(4-(4-(3-methoxyphenyl)piperazine-1-yl)butyl)-1H-benzotriazole] | 4.47 µM | 5.13 µM
18 | N#Cc1cccc(N2CCN(CCCCn3nnc4ccccc43)CC2)c1 [II-41, 1-(4-(4-(3-cyanophenyl)piperazine-1-yl)butyl)-1H-benzotriazole] | 30.9 µM | 24.5 µM
19 | FC(F)(F)c1cccc(N2CCN(CCCCCn3nnc4ccccc43)CC2)c1 [II-42, 1-(5-(4-(3-trifluoromethylphenyl)piperazine-1-yl)pentyl)-1H-benzotriazole] | 40.7 µM | 117 µM

Row | Compound | EC50 [1] | EC50 [2]
20 | c1coc(N2CCN(CCCCn3nnc4ccccc43)CC2)c1 [II-43, 1-(4-(4-(2-furyl)piperazine-1-yl)butyl)-1H-benzotriazole] | 35.5 µM | 141 µM
21 | c1ccc2c(c1)nnn2CCCCN1CCN(c2ccncc2)CC1 [II-44, 1-(4-(4-(4-pyridyl)piperazine-1-yl)butyl)-1H-benzotriazole] | 70.8 µM | 186 µM
22 | c1cnc(N2CCN(CCCCn3nnc4ccccc43)CC2)nc1 [II-45, 1-(4-(4-(2-pyrimidinyl)piperazine-1-yl)butyl)-1H-benzotriazole] | 46.8 µM | 81.3 µM
23 | c1ccc2c(c1)nnn2CCCCN1CCN(C2CCCCC2)CC1 [II-46, 1-(4-(4-cyclohexylpiperazine-1-yl)butyl)-1H-benzotriazole] | 55 µM | 120 µM
24 | c1ccc2c(N3CCN(CCCCn4nnc5ccccc54)CC3)cccc2c1 [II-47, 1-(4-(4-(1-naphthyl)piperazine-1-yl)butyl)-1H-benzotriazole] | 132 µM | 288 µM
25 | c1ccc2nc(N3CCN(CCCCn4nnc5ccccc54)CC3)cnc2c1 [II-48, 1-(4-(4-(2-quinoxalinyl)piperazine-1-yl)butyl)-1H-benzotriazole] | 148 µM | 372 µM
26 | Fc1ccc2c(N3CCN(CCCCn4nnc5ccccc54)CC3)nsc2c1 [II-49, 1-(4-(4-(3-(6-fluorobenzisothiazolyl))piperazine-1-yl)butyl)-1H-benzotriazole] | 89.1 µM | 141 µM
27 | Fc1ccc2c(N3CCN(CCCn4nnc5ccccc54)CC3)coc2c1 [II-51, 1-(3-(4-(3-(6-fluorobenzofuranyl))piperazine-1-yl)propyl)-1H-benzotriazole] | 30.2 µM | 34.7 µM
28 | Fc1ccc2c(N3CCN(CCCOn4nnc5ccc(F)cc54)CC3)nsc2c1 [II-53, 6-fluoro-1-(4-(4-(3-(6-fluoro-benzisothiazolyl))piperazine-1-yl)propoxyl)-1H-benzotriazole] | 52.5 µM | 132 µM
29 | FC(F)(F)c1cccc(N2CCN(CCCCn3nnc4ccc(Cl)cc43)CC2)c1 [II-54, 6-chloro-1-(4-(4-(3-trifluoromethylphenyl)piperazine-1-yl)butyl)-1H-benzotriazole] | 6.17 µM | 12.3 µM
30 | N#Cc1ccc2nnn(CCCCN3CCN(c4cccc(C(F)(F)F)c4)CC3)c2c1 [II-55, 6-cyano-1-(4-(4-(3-trifluoromethylphenyl)piperazine-1-yl)butyl)-1H-benzotriazole] | 97.7 µM | 195 µM
31 | COC(=O)c1ccc2nnn(CCCCN3CCN(c4cccc(C(F)(F)F)c4)CC3)c2c1 [II-56, 6-methoxycarbonyl-1-(4-(4-(3-trifluoromethylphenyl)piperazine-1-yl)butyl)-1H-benzotriazole] | 55 µM | 309 µM
32 | FC(F)(F)c1cccc(N2CCN(CCCCn3ccc4ccccc43)CC2)c1 [II-57, 1-(4-(4-(3-trifluoromethylphenyl)piperazine-1-yl)butyl)-1H-indole] | 61.7 µM | 263 µM
33 | N#Cc1ccc2ccn(CCCCN3CCN(c4cccc(Cl)c4)CC3)c2c1 [II-58, 6-cyano-1-(4-(4-(3-chlorophenyl)piperazine-1-yl)butyl)-1H-indole] | 67.6 µM | 178 µM
34 | FC(F)(F)c1cccc(N2CCN(CCCn3ncc4ccccc43)CC2)c1 [II-59, 1-(3-(4-(3-trifluoromethylphenyl)piperazine-1-yl)propyl)-1H-benzopyrazole] | 29.5 µM | 61.7 µM
35 | N#Cc1ccc2cnn(CCCN3CCN(c4cccc(Cl)c4Cl)CC3)c2c1 [II-60] | 89.1 µM | 155 µM
36 | Fc1ccc2c(C3CCN(CCn4nnc5ccccc54)CC3)noc2c1 [II-143, N-(2-(1-benzotriazolyl)ethyl)-4-(3-(6-fluorobenzisoxazolyl))piperidine] | 1.2 µM | 120 µM
37 | Fc1ccc2c(C3CCN(CCCCn4nnc5ccccc54)CC3)noc2c1 [II-144, N-(4-(1-benzotriazolyl)butyl)-4-(3-(6-fluorobenzisoxazolyl))piperidine] | 1.1 µM | 110 µM
